Results from patent US20170145005A1, “KINASE INHIBITOR” (THE UNIVERSITY OF TOKYO, priority 2014, published 2017).

Columns and labels:
PIM-3 kinase = PIM-3 kinase (Homo sapiens, UniProt Q86V86); assay: Measurement of PIM-3 kinase inhibitory activity (fluorescent substrate peptide, capillary electrophoresis); format: biochemical; details: 30 μM ATP, 2 hours at room temperature
Protocol: 1.5 μM of fluorescent substrate peptide (FAM-AKRRRLSSLRA-COOH), 30 μM of ATP, and 0.0833 ng/μL of PIM-3 kinase were incubated with a compound for 2 hours at room temperature, and the Pim-3 kinase activity was measured. The reaction was quantified by separating the substrate and phosphorylation reaction product by capillary electrophoresis (using a Perkin-Elmer EZ reader II) based on the difference in their charges. The results are shown below in Tables 1 and 2.

MiaPaca-2 [1] = assay: Growth inhibitory activity on human pancreatic cancer cell lines (Example 2, WST-8); format: cell-based; details: cultured for 72 hours, 2000 cells/well
Protocol: (§1) Two thousand cells of human pancreatic cancer cells lines (L3.6pl, MiaPaca-2, PANC-1, PCI35, PCI66) were seeded in a medium volume of 100 μL in each well of a 96-well microtiter plate. The medium was removed after 18 hours, and 100 μL/well of medium containing the test compound was added. Culture was continued for 72 or 96 hours. The medium containing the test compound was removed, and 100 μL/well of medium containing 10% WST-8 (Dojindo Laboratories Cell Counting kit-8) was added. After culturing for one hour, the OD 450 nm absorbance was measured, and the cell growth inhibitory activity was calculated. Furthermore, RPMI-1640 medium (Sigma) was used as the medium with 10% fetal calf serum (Invitrogen), 50 U/mL penicillin G (Sigma), and 50 μg/mL streptomycin (Sigma) added. The cell lines were cultured at 37° C. in a carbon dioxide incubator with a carbon dioxide concentration of 5%.
(§2) Tables 3 and 4 show the results of compound evaluation when cultured for 96 hours.

L3.6pl [2] = assay: as above; format: cell-based; details: cultured for 72 hours, 2000 cells/well
Protocol: as §1, §2

PANC-1 [3] = assay: as above; format: cell-based; details: cultured for 72 hours, 2000 cells/well
Protocol: as §1, §2

MiaPaca-2 [4] = assay: Growth inhibitory activity on human pancreatic cancer cell lines (Example 4, WST-8); format: cell-based; details: MIA PaCa-2, Example 4: 72 hours, 3000 cells/well
Protocol: (§3) Three thousand cells of human pancreatic cancer cell lines (L3.6pl, MiaPaca-2, PANC-1, PCI35, and PCI66) were seeded in a medium volume of 90 μL in each well of a 96-well microtiter plate. After 24 hours, 10 μL/well of medium containing the test compound was added. Culture was continued for 72 hours, and 10 μL/well of WST-8 (Dojindo Laboratories Cell Counting kit-8) was added. After culturing for 2 hours, the OD 450 nm absorbance was measured, and the cell growth inhibitory effect was calculated. The cell lines were cultured in a carbon dioxide incubator with a carbon dioxide concentration of 5%.

PCI66 = assay: as above; format: cell-based; details: Example 4: 72 hours, 3000 cells/well
Protocol: as §3

L3.6pl [5] = assay: as above; format: cell-based; details: Example 4: 72 hours, 3000 cells/well
Protocol: as §3

PANC-1 [6] = assay: as above; format: cell-based; details: Example 4: 72 hours, 3000 cells/well
Protocol: as §3

PCI35 = assay: as above; format: cell-based; details: Example 4: 72 hours, 3000 cells/well
Protocol: as §3

## CN[C@H]1CCN(Cc2c(OC)ccc3c2O/C(=C\c2n[nH]c4ncccc24)C3=O)C1 [Compound 26, (S,Z)-2-[(1H-pyrazolo[3,4-b]pyridin-3-yl)methylene]-6-methoxy-7-{[3-(methylamino)pyrrolidin-1-yl]methyl}benzofuran-3(2H)-one]
PIM-3 kinase
  IC50: 1.1 nM

## COc1ccc2c(c1CN1CC[C@H](N)C1)O/C(=C\c1n[nH]c3ncccc13)C2=O [Compound 14, (S,Z)-2-[(1H-pyrazolo[3,4-b]pyridin-3-yl)methylene]-7-[(3-aminopyrrolidin-1-yl)methyl]-6-methoxybenzofuran-3(2H)-one]
PIM-3 kinase
  IC50: 1 nM

## COc1ccc2c(c1CN1CCNC[C@@H]1C)O/C(=C\c1n[nH]c3ncccc13)C2=O [Compound 9, (S,Z)-2-[(1H-pyrazolo[3,4-b]pyridin-3-yl)methylene]-6-methoxy-7-[(2-methylpiperazin-1-yl)methyl]benzofuran-3(2H)-one]
MiaPaca-2 [1]; Homo sapiens, MIA PaCa-2
  IC50: 3000 nM
L3.6pl [2]; Homo sapiens, L3.6pl, 72 h
  IC50: 4000 nM
PANC-1 [3]; Homo sapiens, PANC-1, 72 h
  IC50: 12000 nM
PIM-3 kinase
  IC50: 8.4 nM

## COc1ccc2c(c1CN1CCC[C@H](N)C1)O/C(=C\c1n[nH]c3ncccc13)C2=O [Compound 32, (S,Z)-2-[(1H-pyrazolo[3,4-b]pyridin-3-yl)methylene]-7-[(3-aminopiperidin-1-yl)methyl]-6-methoxybenzofuran-3(2H)-one]
MiaPaca-2 [4]
  IC50: 2900 nM
PCI66
  IC50: 4200 nM
L3.6pl [5]
  IC50: 3300 nM
PANC-1 [6]
  IC50: 8100 nM
PCI35
  IC50: 5300 nM
PIM-3 kinase
  IC50: 0.51 nM

## COc1ccc2c(c1CN1[C@H](C)CNC[C@@H]1C)O/C(=C\c1n[nH]c3ncccc13)C2=O [Compound 13, (Z)-2-[(1H-pyrazolo[3,4-b]pyridin-3-yl)methylene]-7-[(cis-2,6-dimethylpiperazin-1-yl)methyl]-6-methoxybenzofuran-3(2H)-one]
MiaPaca-2 [1]; Homo sapiens, MIA PaCa-2
  IC50: 2400 nM
L3.6pl [2]; Homo sapiens, L3.6pl, 72 h
  IC50: 3500 nM
PANC-1 [3]; Homo sapiens, PANC-1, 72 h
  IC50: 8400 nM
PIM-3 kinase
  IC50: 150 nM

## CC(c1c(OCC2CC2)ccc2c1O/C(=C\c1n[nH]c3ncccc13)C2=O)N1CCNCC1 (centres unmarked) [Compound 23, (Z)-2-[(1H-pyrazolo[3,4-b]pyridin-3-yl)methylene]-6-(cyclopropylmethoxy)-7-[1-(piperazin-1-yl)ethyl]benzofuran-3(2H)-one]
MiaPaca-2 [4]
  IC50: 3800 nM
PCI66
  IC50: 4200 nM
L3.6pl [5]
  IC50: 9800 nM
PANC-1 [6]
  IC50: 8000 nM
PCI35
  IC50: 5300 nM
PIM-3 kinase
  IC50: 0.62 nM

## C=C(CN1CCNCC1)c1c(OC)ccc2c1O/C(=C\c1n[nH]c3ncccc13)C2=O [Compound 24, (Z)-2-[(1H-pyrazolo[3,4-b]pyridin-3-yl)methylene]-6-methoxy-7-[3-(piperazin-1-yl)prop-1-en-2-yl]benzofuran-3(2H)-one]
PIM-3 kinase
  IC50: 12 nM

## COc1ccc2c(c1CN1CCN[C@H](C)C1)O/C(=C\c1n[nH]c3ncccc13)C2=O [Compound 12, (R,Z)-2-[(1H-pyrazolo[3,4-b]pyridin-3-yl)methylene]-6-methoxy-7-[(3-methylpiperazin-1-yl)methyl]benzofuran-3(2H)-one]
MiaPaca-2 [1]; Homo sapiens, MIA PaCa-2
  IC50: 3200 nM
L3.6pl [2]; Homo sapiens, L3.6pl, 72 h
  IC50: 3500 nM
PANC-1 [3]; Homo sapiens, PANC-1, 72 h
  IC50: 8200 nM
PIM-3 kinase
  IC50: 7.9 nM

## COc1ccc2c(c1CN1C[C@@H](C)N[C@@H](C)C1)O/C(=C\c1n[nH]c3ncccc13)C2=O [Compound 10, (Z)-2-[(1H-pyrazolo[3,4-b]pyridin-3-yl)methylene]-7-[(cis-3,5-dimethylpiperazin-1-yl)methyl]-6-methoxybenzofuran-3(2H)-one]
MiaPaca-2 [1]; Homo sapiens, MIA PaCa-2
  IC50: 3000 nM
L3.6pl [2]; Homo sapiens, L3.6pl, 72 h
  IC50: 7500 nM
PANC-1 [3]; Homo sapiens, PANC-1, 72 h
  IC50: 14000 nM
PIM-3 kinase
  IC50: 19 nM

## COc1ccc2c(c1CN1CC[C@@H](N)C1)O/C(=C\c1n[nH]c3ncccc13)C2=O [Compound 15, (R,Z)-2-[(1H-pyrazolo[3,4-b]pyridin-3-yl)methylene]-7-[(3-aminopyrrolidin-1-yl)methyl]-6-methoxybenzofuran-3(2H)-one]
PIM-3 kinase
  IC50: 1.6 nM

## O=C1/C(=C/c2n[nH]c3ncccc23)Oc2c1ccc(OC(F)F)c2CC1CCNCC1 [Compound 17, (Z)-2-[(1H-pyrazolo[3,4-b]pyridin-3-yl)methylene]-6-(difluoromethoxy)-7-(piperidin-4-ylmethyl)benzofuran-3(2H)-one]
MiaPaca-2 [4]
  IC50: 3200 nM
PCI66
  IC50: 18000 nM
L3.6pl [5]
  IC50: 6200 nM
PANC-1 [6]
  IC50: 9700 nM
PCI35
  IC50: 9300 nM
PIM-3 kinase
  IC50: 2.2 nM

## COc1ccc2c(c1CN1CCNC[C@H]1C)O/C(=C\c1n[nH]c3ncccc13)C2=O [Compound 8, (R,Z)-2-[(1H-pyrazolo[3,4-b]pyridin-3-yl)methylene]-6-methoxy-7-[(2-methylpiperazin-1-yl)methyl]benzofuran-3(2H)-one]
MiaPaca-2 [1]; Homo sapiens, MIA PaCa-2
  IC50: 3500 nM
L3.6pl [2]; Homo sapiens, L3.6pl, 72 h
  IC50: 3500 nM
PANC-1 [3]; Homo sapiens, PANC-1, 72 h
  IC50: 12000 nM
PIM-3 kinase
  IC50: 38 nM

## COc1ccc2c(c1CC1CCNCC1F)O/C(=C\c1n[nH]c3ncccc13)C2=O (centres unmarked) [Compound 18, (Z)-2-[(1H-pyrazolo[3,4-b]pyridin-3-yl)methylene]-7-[(3-fluoropiperidin-4-yl)methyl]-6-methoxybenzofuran-3(2H)-one]
MiaPaca-2 [1]; Homo sapiens, MIA PaCa-2
  IC50: 220 nM
L3.6pl [2]; Homo sapiens, L3.6pl, 72 h
  IC50: 250 nM
PANC-1 [3]; Homo sapiens, PANC-1, 72 h
  IC50: 420 nM
PIM-3 kinase
  IC50: 0.35 nM

## COc1ccc2c(c1CN1CCC[C@@H]1CN)O/C(=C\c1n[nH]c3ncccc13)C2=O [Compound 31, (R,Z)-2-[(1H-pyrazolo[3,4-b]pyridin-3-yl)methylene]-7-{[2-(aminomethyl)pyrrolidin-1-yl]methyl}-6-methoxybenzofuran-3(2H)-one]
PIM-3 kinase
  IC50: 0.96 nM

## COc1ccc2c(c1CN1CCN[C@@H](C)C1)O/C(=C\c1n[nH]c3ncccc13)C2=O [Compound 11, (S,Z)-2-[(1H-pyrazolo[3,4-b]pyridin-3-yl)methylene]-6-methoxy-7-[(3-methylpiperazin-1-yl)methyl]benzofuran-3(2H)-one]
MiaPaca-2 [1]; Homo sapiens, MIA PaCa-2
  IC50: 3400 nM
L3.6pl [2]; Homo sapiens, L3.6pl, 72 h
  IC50: 3500 nM
PANC-1 [3]; Homo sapiens, PANC-1, 72 h
  IC50: 8300 nM
PIM-3 kinase
  IC50: 1.4 nM

## COc1ccc2c(c1C(C)CN1CCNCC1)O/C(=C\c1n[nH]c3ncccc13)C2=O (centres unmarked) [Compound 27, (Z)-2-[(1H-pyrazolo[3,4-b]pyridin-3-yl)methylene]-6-methoxy-7-[1-(piperazin-1-yl)propan-2-yl]benzofuran-3(2H)-one]
PIM-3 kinase
  IC50: 6.4 nM

## O=C1/C(=C/c2n[nH]c3ncccc23)Oc2c1ccc(Cl)c2CC1CCNCC1 [Compound 28, (Z)-2-[(1H-pyrazolo[3,4-b]pyridin-3-yl)methylene]-6-chloro-7-(piperidin-4-ylmethyl)benzofuran-3(2H)-one]
PIM-3 kinase
  IC50: 1.3 nM

## COc1ccc2c(c1CC1CCNCC1)O/C(=C\c1n[nH]c3nc(C)ccc13)C2=O [Compound 16, (Z)-6-methoxy-2-[(6-methyl-1H-pyrazolo[3,4-b]pyridin-3-yl)methylene]-7-(piperidin-4-ylmethyl)benzofuran-3(2H)-one]
PIM-3 kinase
  IC50: 0.7 nM

## COc1ccc2c(c1CC1CCNCC1F)O/C(=C\c1n[nH]c3ncccc13)C2=O (centres unmarked) [Compound 19, (Z)-2-[(1H-pyrazolo[3,4-b]pyridin-3-yl)methylene]-7-[(3-fluoropiperidin-4-yl)methyl]-6-methoxybenzofuran-3(2H)-one]
MiaPaca-2 [1]
  IC50: 220 nM
L3.6pl [2]
  IC50: 300 nM
PANC-1 [3]
  IC50: 330 nM
PIM-3 kinase
  IC50: 0.7 nM

## COc1ccc2c(c1CN1CCNCC1)O/C(=C\c1n[nH]c3nc(C)ccc13)C2=O [Compound 7, (Z)-6-methoxy-2-[(6-methyl-1H-pyrazolo[3,4-b]pyridin-3-yl)methylene]-7-(piperazin-1-ylmethyl)benzofuran-3(2H)-one]
PIM-3 kinase
  IC50: 2.8 nM
